The record followed here is ChEMBL document CHEMBL4043107, “Stable C-N axial chirality in 1-aryluracil scaffold and differences in in vitro metabolic clearance between atropisomers of PDE4 inhibitor” (Bioorg Med Chem, 2017).

The assay concerns the target 3',5'-cyclic-AMP phosphodiesterase 4A (Homo sapiens, UniProt P27815). As to the kind of experiment: Inhibition of human full length recombinant PDE4A1A using FAM-cAMP as substrate after 30 mins by fluorescence based spectrophotometric method.

Where “and” joins values, the source holds several entries; their conditions need not be identical. Identical values can stand only once.

3',5'-cyclic-AMP phosphodiesterase 4A, sequence (P27815 whole entry): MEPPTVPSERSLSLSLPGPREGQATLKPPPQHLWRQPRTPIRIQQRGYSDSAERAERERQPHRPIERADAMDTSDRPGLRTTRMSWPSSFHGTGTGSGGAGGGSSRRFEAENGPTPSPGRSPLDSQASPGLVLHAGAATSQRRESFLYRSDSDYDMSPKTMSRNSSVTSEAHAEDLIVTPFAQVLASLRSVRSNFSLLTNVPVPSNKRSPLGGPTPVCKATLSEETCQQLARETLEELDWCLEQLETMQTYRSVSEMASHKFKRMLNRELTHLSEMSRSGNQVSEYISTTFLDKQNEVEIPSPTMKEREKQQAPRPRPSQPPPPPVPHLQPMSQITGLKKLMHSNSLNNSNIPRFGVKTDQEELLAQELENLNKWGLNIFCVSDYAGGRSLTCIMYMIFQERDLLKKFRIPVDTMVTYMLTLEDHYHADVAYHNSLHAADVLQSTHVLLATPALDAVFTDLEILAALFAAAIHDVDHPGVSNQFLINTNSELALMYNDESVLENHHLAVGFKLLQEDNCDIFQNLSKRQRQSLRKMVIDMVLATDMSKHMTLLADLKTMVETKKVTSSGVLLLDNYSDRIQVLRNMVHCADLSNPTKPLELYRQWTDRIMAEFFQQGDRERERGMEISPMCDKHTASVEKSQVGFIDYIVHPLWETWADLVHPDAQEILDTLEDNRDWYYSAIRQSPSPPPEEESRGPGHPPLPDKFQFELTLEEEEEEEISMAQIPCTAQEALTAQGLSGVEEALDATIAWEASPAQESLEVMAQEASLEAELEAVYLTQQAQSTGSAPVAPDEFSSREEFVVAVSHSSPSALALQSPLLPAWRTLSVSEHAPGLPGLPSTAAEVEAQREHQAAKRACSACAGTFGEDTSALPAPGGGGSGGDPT

As to `CCCn1c(=O)c2ccc(N)nc2n(-c2cc(OC)ccc2OC)c1=O`, the half-maximal inhibitory concentration (IC50) was 70 µM and 125 µM.

What is called IC50 is the concentration that gives 50% inhibition.
